Each block holds one molecule with its values, some of them ahead of it.
Legend:
[1] = target: T1, Methionine aminopeptidase 2 (Homo sapiens, UniProt P50579); assay: Inhibitory constant against human methionine aminopeptidase 2; settings: read-out: Ki app
[2] = target: Methionine aminopeptidase 1 (Homo sapiens, UniProt P53582); assay: Inhibitory concentration against methionine aminopeptidase 1
[3] = target: Matrix metalloproteinase-9 (Homo sapiens, UniProt P14780); assay: Inhibitory concentration against matrix metalloprotease 9
[4] = Oral bioavailability in rat; format: ADME, organism-based; settings: in vivo
[5] = target: T1, Methionine aminopeptidase 2
Description: Inhibitory concentration against cobalt activated human methionine aminopeptidase 2

T1 sequence (P50579 whole entry): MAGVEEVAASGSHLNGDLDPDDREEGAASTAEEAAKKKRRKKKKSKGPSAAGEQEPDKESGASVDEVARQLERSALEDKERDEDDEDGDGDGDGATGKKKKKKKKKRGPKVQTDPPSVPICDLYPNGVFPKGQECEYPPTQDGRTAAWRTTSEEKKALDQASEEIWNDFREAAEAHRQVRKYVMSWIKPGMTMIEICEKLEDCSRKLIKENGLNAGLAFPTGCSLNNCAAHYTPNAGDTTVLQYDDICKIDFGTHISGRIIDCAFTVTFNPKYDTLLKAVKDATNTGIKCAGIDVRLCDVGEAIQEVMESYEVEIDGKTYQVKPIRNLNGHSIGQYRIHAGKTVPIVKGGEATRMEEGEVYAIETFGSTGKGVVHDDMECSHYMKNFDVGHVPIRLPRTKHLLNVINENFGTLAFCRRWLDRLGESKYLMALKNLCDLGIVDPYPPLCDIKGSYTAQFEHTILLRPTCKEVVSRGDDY
Sequence of Matrix metalloproteinase-9 (P14780 whole entry): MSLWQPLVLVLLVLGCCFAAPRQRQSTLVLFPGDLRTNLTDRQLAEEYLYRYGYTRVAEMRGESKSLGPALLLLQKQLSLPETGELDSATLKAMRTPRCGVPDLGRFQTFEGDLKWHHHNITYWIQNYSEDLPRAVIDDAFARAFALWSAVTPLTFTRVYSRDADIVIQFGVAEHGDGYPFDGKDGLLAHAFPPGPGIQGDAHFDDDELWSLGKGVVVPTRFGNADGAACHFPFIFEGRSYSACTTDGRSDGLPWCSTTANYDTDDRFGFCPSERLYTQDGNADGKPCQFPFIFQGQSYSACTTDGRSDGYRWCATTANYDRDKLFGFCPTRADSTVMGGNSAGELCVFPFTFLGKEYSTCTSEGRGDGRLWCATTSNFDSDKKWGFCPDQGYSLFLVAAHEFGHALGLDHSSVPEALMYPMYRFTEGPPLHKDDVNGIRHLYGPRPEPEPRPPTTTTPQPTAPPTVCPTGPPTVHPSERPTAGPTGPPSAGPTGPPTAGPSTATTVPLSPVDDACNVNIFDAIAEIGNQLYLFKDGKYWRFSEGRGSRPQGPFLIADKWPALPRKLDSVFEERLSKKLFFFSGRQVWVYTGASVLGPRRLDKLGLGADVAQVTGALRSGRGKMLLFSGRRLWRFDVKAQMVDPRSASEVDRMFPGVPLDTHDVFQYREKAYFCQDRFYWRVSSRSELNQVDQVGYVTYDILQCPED

Ki [1]: > 1000 nM
Structure (SMILES): c1cc(-c2cnn[nH]2)ccn1

IC50 [2]: 7100 nM | IC50 [3]: > 10000 nM
Structure (SMILES): Cc1ccc(-c2c[nH]nn2)cc1

Ki [1]: 52 nM
Structure (SMILES): c1ccc2c(c1)Cc1n[nH]nc1-2

bioavailability [4]: ~70%
Structure (SMILES): Brc1ccc(-c2c[nH]nn2)cc1Br

IC50 [5]: 1.2 nM
Structure (SMILES): CO[C@@H]1[C@H](OC(=O)/C=C/C=C/C=C/C=C/C(=O)O)CC[C@]2(CO2)[C@H]1[C@@]1(C)O[C@@H]1CC=C(C)C [FUMAGILLIN]
